The term melting point denotes the temperature of the solid-liquid transition.

Regarding `CCCCN(CCCC)S(=O)(=O)c1cc(O)c(N=Nc2c(C)nn(-c3ccccc3)c2O)c2ccccc12`, the melting point fell in the range of 173 to 174 °C.

Turning to `NNC(=O)C(O)c1cc(F)cc(F)c1` (stereo unspecified), the melting point came out at 119 °C.

With `O=C(O)c1ccc(CNC(=O)C2Cc3ccccc3N2S(=O)(=O)c2ccc(-c3cccc(C(F)(F)F)c3)cc2)cc1` (stereo unspecified), the melting point came out at 120 °C. `O=S(=O)(C(=Cc1ccc(Cl)cc1)SC(=Cc1ccc(Cl)cc1)S(=O)(=O)c1ccccc1)c1ccccc1` yielded a melting point of 251 °C.

In turn, `Nc1c(C(=O)c2cccc(Br)c2)[nH]c2cc(Cl)ccc12` showed a melting point of 142 to 143 °C. Turning to `COCCOc1ccc(/C=C/C(=O)NS(=O)(=O)c2ccccc2)c(Oc2ncc(C(F)(F)F)cc2Cl)c1`, the melting point was determined as 136 °C. On to `COC(=O)c1cccc(COC(OC(C)=O)C(=O)c2ccccc2)c1` (stereo unspecified), for which the melting point lay in the range of 86 to 87 °C. With `CC(C)(C)OC(=O)[C@H](CC(=O)c1ccc2oc3ccccc3c2c1)NC(=O)C(F)(F)F`, the melting point lay in the range of 92 to 94 °C.

Molecule `COc1ccc(-c2ncc3n2CNc2ccccc2-3)cc1` had a melting point of 190 to 191 °C. In turn, `CNC(=O)c1cc2c(Oc3ccc(Cl)c(F)c3)cncc2s1` registered a melting point of 62 to 64 °C.

In the case of `Cc1oc(-c2ccccc2)nc1COc1ccc(COc2nn(Cc3ccccc3)cc2CCC(=O)O)cn1`, the melting point lay in the range of 130 to 131 °C. In the case of `COc1cc(N)c(Cl)cc1C(=O)NCCN1CCC(n2c(=O)[nH]c3ccccc32)CC1`, the melting point amounted to 230 °C.

`CNC(=S)NCC1CC(c2ccc(Cl)cc2)=NO1` (stereo unspecified) had a melting point of 131 to 133 °C.

`Oc1cc(CCl)nc(C(Cl)(Cl)Cl)n1` returned a melting point of 138 to 144 °C. Consider `CCCCCCCCCCCCCCCC(=O)Oc1ccc(C(O)CNCCc2ccc(OC)c(OC)c2)cc1` (stereo unspecified), for which the melting point is 79 to 81 °C. `CC1(c2ccc(O)cc2)C(=O)Nc2cc(Cl)cc(Cl)c2C1=O` (stereo unspecified) displayed a melting point of 222 to 223 °C. The value for `C=CCOC(=O)C1=C(C)NC(C)=C(C(=O)OCC)C1c1ccc(OC)c(OC)c1OC` (stereo unspecified) was 134 to 135 °C; that for `O=C(NCCCCSc1ccncc1)c1ccccc1CO` was 87 to 88 °C.

The molecule `CC(=O)Nc1ccc(S(=O)(=O)N2CCCCC2)cc1` yielded a melting point of 137 to 139 °C. Molecule `CCCSc1csc(C(=O)OC)c1S(=O)(=O)NC(C)(C)C` yielded a melting point of 93 to 98 °C. `CC1(OC(=O)c2ccco2)C=CC(COC(=O)c2ccco2)=CN1` (stereo unspecified) displayed a melting point of 118 to 119 °C.

In turn, `COC=C(C(=O)OC)c1ccccc1[C@@H]1O[C@H]1c1ccccc1` (relative stereo) returned a melting point of 110 to 113 °C. As for `Cc1c(N)c([N+](=O)[O-])cc(F)c1F`, the melting point was 87.2 to 88 °C.

Molecule `Cc1cccc(Nc2cc(Nc3ccc(OCCCN(C)C)cc3)ncn2)c1` came in with a melting point of 204 to 207 °C. Regarding `CSCCC(=N)Nc1cn(-c2cccnc2)nc1Cl`, the melting point turned out to be 137 °C. The value for `COc1ccc(-c2nc3cc(Cl)ccc3o2)cc1OC` was 142 to 145 °C. Regarding `CCCCCCCCCCCCCCCc1cccc(OC)c1`, the melting point was 27 to 28 °C. Under `CC(Oc1c(Cl)cccc1Cl)C(N)=O` (single isomer, unassigned; (-)) stands 192 to 193 °C.

For the molecule `COC1=C(OC)C(=O)c2cc(Cl)ccc2C1=O`, the melting point fell in the range of 125 to 126 °C.

As for `CC1(C)COc2cc(Br)ccc2C(O)(c2ccccn2)C1` (stereo unspecified), the melting point came to 110 °C.

On to `CC(C)Nc1cccnc1N1CCN(C(=O)c2ccc(C(=O)O)cc2)CC1`, for which the melting point is 215 to 217 °C. Take `O=c1ccc(C(F)(F)F)cn1Cc1ccc([N+](=O)[O-])cc1`: the melting point was in the range of 121 to 123 °C. For `CC(C)(C#N)c1ccc(C(=O)Nc2cn3cc(Cl)ccc3n2)cc1`, the melting point lay in the range of 248 to 250 °C. In turn, `N#CC(C(=O)Nc1ccccc1)C(=O)c1nn(-c2ccccc2)c2c1COc1ccc(Cl)cc1-2` (stereo unspecified) returned a melting point of 243 to 246 °C.

For `CCOC(=O)c1cc(NCc2ccccc2)c(N2CCOCC2)c(S(N)(=O)=O)c1`, the melting point is 185 to 186 °C.

In turn, `CCCc1cc(Cl)c2oc(C(=O)c3ccc(Cl)cc3)c(C)c2c1OC(=O)c1ccc(Cl)cc1` had a melting point of 177 to 182 °C. `FC(F)(F)c1ccc(Cl)c(CN2CCNc3ncc(I)cc32)c1` came in with a melting point of 120 to 125 °C. Turning to `CC(C)OC(=O)c1cc(-n2c(=O)[nH]c3c(c2=O)CCC3)c(F)cc1F`, the melting point fell in the range of 231 to 234 °C. The molecule `COc1ccc2c(C3CCN(CCCn4c(=O)[nH]c5ccccc54)CC3)noc2c1` had a melting point of 176 to 178 °C. `CNC(=O)c1cc(C(=O)OCCO)cc(C(=O)NC)n1` yielded a melting point of 214 to 215 °C. As to `O=C(O)CCC(=O)Nc1ccc(N2CCN(c3ccncc3)CC2)cc1`, the melting point was in the range of 263 to 264 °C. As for `CC(C)(C)c1cc(SCCOC(=O)c2cc(C(C)(C)C)c(O)c(C(C)(C)C)c2)cc(C(C)(C)C)c1O`, the melting point lay in the range of 136 to 139 °C. Take `CCC(CC)Oc1cc(C)nc(Oc2c(C)cc(C)cc2C)c1C`: the melting point is 72.5 to 74 °C. The value for `COC(=O)C(C)Oc1ccc(OCc2ccccc2)cc1` (stereo unspecified) was 63 to 65 °C; that for `Cc1ccc(NC(=O)N[C@]2(C3CCCCC3)N=Cc3ccccc3N(C)C2=O)cc1N(C)c1nnn[nH]1` was 223 to 225 °C.

Consider `CCOC(=O)c1c(SC)nc(C2CC2)n1Cc1ccc(-c2ccccc2S(=O)(=O)NC#N)cc1`, for which the melting point was > 260 °C. In turn, `NC(=O)N(O)Cc1ccc2c(c1)CCN2CCCc1ccccc1` displayed a melting point of 94 to 94.5 °C. Turning to `CC(C)N1CCN(c2ccc(OCC(O)CC(O)(Cn3cncn3)c3ccc(Cl)cc3Cl)cc2)CC1` (stereo unspecified), the melting point fell in the range of 131 to 132 °C. Turning to `CCCCCCCCCCC=CCc1c[nH]c(C(=O)NN)c1`, the melting point lay within 130 to 132 °C.

Regarding `CC(=O)OCc1nc(C#N)cc(OCc2ccccc2)c1OCc1ccccc1`, the melting point was in the range of 98 to 99 °C. Under `COc1ccccc1N1CCN(CCn2c(=O)[nH]c3scc(C)c3c2=O)CC1` stands 209 to 213 °C; under `CCSC(=S)N1Cc2[nH]c3ccccc3c2CC1C(=O)O` (stereo unspecified), 177 to 178 °C.

`FC(F)(F)c1cccc2c1c(N1CCOCC1)nc1c(-c3nc(C4CC4)no3)ncn12` yielded a melting point of 197 to 199 °C. `CCOC(=O)COc1ccc(N(C)c2cc3ccc(Cl)cc3c(Cl)n2)cc1` gave a melting point of 99 °C. The value for `O=C(O)c1ccc(S(=O)(=O)Oc2ccc(-c3ccc(-c4c(Cc5ccccc5)oc5ccccc45)cc3)cc2[N+](=O)[O-])cc1O` was 75 °C; that for `O=C1NC(=C2CCCCC2)Sc2ccccc21` was 146 to 147 °C; that for `O=C(C=C1CCCN1)c1ccc(Cl)cc1` was 146 to 147 °C. In turn, `COc1ccc(CCNC(=O)C(=O)NCCCCCCN)cc1OC1CCCC1` registered a melting point of 105 to 110 °C. The value for `Cc1ccc(-c2ccc3c(c2)C=C(C(=O)O)C(C)O3)cc1` (stereo unspecified) was 190 to 192 °C; that for `CNC(=O)CCCCCCCN(Cc1ccccc1)S(=O)(=O)c1ccc(Cl)c(COc2cccc3ccc(C)nc23)c1Cl` was 120 °C.

Molecule `O=C(Nc1ccc(Oc2ccccc2)cc1)N1CCN(c2nnc(Cc3ccccc3)c3ccccc23)CC1` gave a melting point of 100 to 101 °C.
